From patent publication US8030016B2, “Method for screening for vitamin D receptor ligands” (Teijin Pharma Limited, priority 2006, dated 2011)

Tests used:
[1] = tested on: human CYP24 gene promoter; assay: Dual luciferase assay, human CYP24 gene promoter in HOS cells; type: cell-based; conditions: 10^−8 M, 24 hours
Procedure: (§1) In order to determine whether or not CDP expression increases VDR ligand-dependent transcription activity, a dual luciferase assay was performed using transient transfection in the same manner as Example 6. The reporter vector used in the dual luciferase assay was a pGL4 vector containing a sequence of human CYP24 gene promoter or a sequence of a human osteocalcin gene promoter upstream of the luciferase gene. The pGL4 vector was commercially obtained from Promega. Furthermore, a DNA sequence encoding a region of 4-427 amino acid residues for human VDR was introduced into a pTracerCMV2 vector (Invitrogen) in order to construct a human VDR expression plasmid. The expression vector for intracellular expression of the CDP protein was the pSPORT6-CDP vector used in Example 4. HOS cells used in the assay were cultured in DMEM medium containing 10% FBS and were passaged every two or three days. The culturing conditions were 37° C., 5% CO2. […] The medium was removed after 24 hours and after washing once in PBS(−), luciferase activity was determined by a Dual-Luciferase Assay kit (Promega) using a luminometer (Bethold Japan). The results were expressed as a “transcription activation” being the value represented by (firefly luciferase activity)/(renilla luciferase activity). […]

[2] = tested on: HeLa cells; assay: Differentiation of HeLa cells in culture; type: cell-based; conditions: culturing in the presence of the compound
[3] = tested on: MCF-7 cells; assay: Differentiation of MCF-7 cells in culture; type: cell-based; conditions: culturing in the presence of the compound
[4] = tested on: human osteocalcin gene promoter; assay: Dual luciferase assay, human osteocalcin gene promoter in HOS cells; type: cell-based; conditions: 10^−8 M, 24 hours, endogenous VDR
Procedure: as §1

[5] = tested on: SaM-1 cells; assay: Alkaline phosphatase staining of SaM-1 cells infected with Ad-CDP or Ad-mock; conditions: 10^−8−10^−7 M, seven days
Procedure: The cells were used to inoculate a 24 well multi-well plate and cultured. When the cells reached 80% confluence, the medium was exchanged for a proliferation medium containing the virus, cultured overnight in order to infect the cells with the virus. Then the medium was exchange for a proliferation medium not containing a virus. […] The medium was exchanged every two days and cultured for seven days. After seven days culturing, alkaline phosphatase staining was performed.

[6] = tested on: SaM-1 cells; assay: Gene expression during osteoblast differentiation of SaM-1 cells, real-time RT-PCR; type: cell-based, human; conditions: various concentrations, up to 28 days, relative to beta actin
Description: The medium was replaced every 2 to 3 days. Cells were recovered at the fourth day, seventh day, fourteenth day, and twenty-eighth day until the final differentiation (calcification) on the twenty-eighth day. Total RNA was extracted using an RNeasy Mini Kit (QIAGEN, Product No. 74104) and cDNA synthesized using an Ommniscript RTKit (QIAGEN, Product No. 205110). The cDNA was mixed with SYBR Green PCR Master Mix (Applied Biosystems, Product No. 4367659) and primer oligos suitable for amplifying various types of genes. Variation in the gene expression of the alkaline phosphatase which is a marker for osteoblast differentiation, CDP and osteocalcin, and beta actin which is known as a universally expressed housekeeping gene was examined by real-time RT-PCR using a GeneAmp 5700 Sequence Detection System (Applied Biosystems) or ABI PRISM 7000 Sequence Detection System (Applied Biosystems). Oligos complementary to the various genes were designed by general methods and synthesized by Sigma Genosys. The results are shown by relative values with respect to the amount of expression of beta actin. […] The value for the relative amount of expression is calculated using the formula 2^−(ΔΔCT of target gene−ΔΔCT of beta actin).

[7] = tested on: HOS cells; assay: Gene expression in HOS cells transfected with pSPORT6-CDP, real-time RT-PCR; type: cell-based, human; conditions: HOS cells with CDP introduced, various concentrations, three days, relative to GAPDH
Procedure: After three days, cells were recovered, and total RNA was extracted using an RNeasy Mini Kit (QIAGEN, Product No. 74104). Reverse transcription reactions were performed by oligo dT primers using SuperScriptlll RT (Invitrogen, 18080-044) and the amount of expression of various genes was determined using real-time RT-PCR (Applied Biosystems, GeneAmp7000). The amount of gene expression was corrected using GAPDH which is a housekeeping gene and shown as a relative figure of GAPDH and the amount of respective gene expression. The formula used is the same as that used in Example 5.

[8] = tested on: HOS-TE85 cells; assay: Differentiation of HOS-TE85 cells in culture; type: cell-based; conditions: culturing in the presence of the compound
[9] = biological target: T1, CCAAT Displacement Protein (CDP), endogenous protein in nuclear protein extracts (human, UniProt P39880 1-1505, limits assumed); assay: immunoprecipitation with anti-CDP antibody of the glutathione eluate of GST-VDR-bound HOS nuclear proteins (with 1,25(OH)2D3); western blot
T1 construct: Endogenous protein of nuclear extracts from HOS (human osteoblast cell strain), HeLa or Caco-2 cells; also called CUTL1; CUX
T1 sequence (P39880 whole entry): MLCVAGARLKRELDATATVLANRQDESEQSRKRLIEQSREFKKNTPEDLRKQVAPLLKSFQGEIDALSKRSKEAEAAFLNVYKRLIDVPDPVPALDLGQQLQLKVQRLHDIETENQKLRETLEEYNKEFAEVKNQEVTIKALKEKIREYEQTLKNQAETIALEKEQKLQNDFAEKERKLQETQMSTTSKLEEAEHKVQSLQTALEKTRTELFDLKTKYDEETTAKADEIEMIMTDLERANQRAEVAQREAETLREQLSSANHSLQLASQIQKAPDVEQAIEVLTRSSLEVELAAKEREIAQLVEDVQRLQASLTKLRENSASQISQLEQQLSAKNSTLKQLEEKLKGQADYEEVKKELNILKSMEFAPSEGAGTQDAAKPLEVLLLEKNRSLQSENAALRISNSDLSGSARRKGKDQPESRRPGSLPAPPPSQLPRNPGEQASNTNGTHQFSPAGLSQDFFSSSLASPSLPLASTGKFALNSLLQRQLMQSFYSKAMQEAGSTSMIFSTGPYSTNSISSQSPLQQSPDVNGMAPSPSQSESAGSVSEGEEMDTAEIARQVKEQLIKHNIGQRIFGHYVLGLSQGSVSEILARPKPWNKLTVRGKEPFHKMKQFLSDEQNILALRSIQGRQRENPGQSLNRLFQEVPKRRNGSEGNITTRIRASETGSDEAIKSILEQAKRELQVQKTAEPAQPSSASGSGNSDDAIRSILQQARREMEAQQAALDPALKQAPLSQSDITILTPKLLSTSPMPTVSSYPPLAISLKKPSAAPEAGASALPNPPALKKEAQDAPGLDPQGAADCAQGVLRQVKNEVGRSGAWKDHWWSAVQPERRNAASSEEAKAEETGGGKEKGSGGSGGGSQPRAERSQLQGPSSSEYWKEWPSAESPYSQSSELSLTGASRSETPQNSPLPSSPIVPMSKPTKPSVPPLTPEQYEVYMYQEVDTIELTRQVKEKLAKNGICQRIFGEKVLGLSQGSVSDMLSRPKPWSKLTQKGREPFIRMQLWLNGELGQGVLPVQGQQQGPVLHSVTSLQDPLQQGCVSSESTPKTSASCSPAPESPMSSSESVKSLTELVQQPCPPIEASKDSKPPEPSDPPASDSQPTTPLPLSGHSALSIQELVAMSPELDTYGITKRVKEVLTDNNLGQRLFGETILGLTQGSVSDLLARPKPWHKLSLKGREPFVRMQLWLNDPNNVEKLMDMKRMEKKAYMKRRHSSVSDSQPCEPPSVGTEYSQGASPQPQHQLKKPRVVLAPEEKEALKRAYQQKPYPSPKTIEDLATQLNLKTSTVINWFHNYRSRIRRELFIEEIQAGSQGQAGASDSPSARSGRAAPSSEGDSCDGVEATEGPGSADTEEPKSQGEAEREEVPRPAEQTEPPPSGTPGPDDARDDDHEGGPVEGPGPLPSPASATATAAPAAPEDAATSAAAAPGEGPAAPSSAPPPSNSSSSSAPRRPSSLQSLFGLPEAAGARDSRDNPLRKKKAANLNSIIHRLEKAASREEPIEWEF

binding result [9] | Molecule | VDR-mediated transcription activation of a human CYP24 promoter [1] | VDR-mediated transcription activation of a human CYP24 promoter when CDP is expressed ([1]; pSPORT6-CDP co-transfected) | cell differentiation [2] | cell differentiation [3] | VDR-mediated transcription activation of a human osteocalcin promoter [4] | VDR-mediated transcription activation of a human osteocalcin promoter when CDP is expressed ([4]; pSPORT6-CDP co-transfected) | number of alkaline phosphatase-positive cells ([5]; Ad-CDP group (CDP over-expressed)) | number of alkaline phosphatase-positive cells ([5]; Ad-mock group) | gene expression of CDP [6] | gene expression of osteocalcin [6] | gene expression of CYP24 [7] | gene expression of alkaline phosphatase (ALP) [7] | gene expression of osteocalcin [7] | cell differentiation [8]
– | C=C1/C(=C\C=C2/CCC[C@]3(C)[C@@H]([C@H](C)CCCC(C)(C)O)CC[C@@H]23)C[C@@H](O)C[C@@H]1O [1,25 (OH)2D3, 1α,25-dihydroxyvitamin D3] | increases | further increased when CDP is expressed | this type of action was not seen | this type of action was not seen | increases | further increased when CDP is expressed | conspicuously higher increase in the number of alkaline phosphatase-positive cells | increase in the number of alkaline phosphatase-positive cells | increase | increase | increased | increased | increased | differentiate
no binding | TRAP100, endogenous protein in nuclear protein extracts (other, human, UniProt O75448 1-989, looked up) MKVVNLKQAILQAWKERWSDYQWAINMKKFFPKGATWDILNLADALLEQAMIGPSPNPLILSYLKYAISSQMVSYSSVLTAISKFDDFSRDLCVQALLDIMDMFCDRLSCHGKAEECIGLCRALLSALHWLLRCTAASAERLREGLEAGTPAAGEKQLAMCLQRLEKTLSSTKNRALLHIAKLEEASSWTAIEHSLLKLGEILANLSNPQLRSQAEQCGTLIRSIPTMLSVHAEQMHKTGFPTVHAVILLEGTMNLTGETQSLVEQLTMVKRMQHIPTPLFVLEIWKACFVGLIESPEGTEELKWTAFTFLKIPQVLVKLKKYSHGDKDFTEDVNCAFEFLLKLTPLLDKADQRCNCDCTNFLLQECGKQGLLSEASVNNLMAKRKADREHAPQQKSGENANIQPNIQLILRAEPTVTNILKTMDADHSKSPEGLLGVLGHMLSGKSLDLLLAAAAATGKLKSFARKFINLNEFTTYGSEESTKPASVRALLFDISFLMLCHVAQTYGSEVILSESRTGAEVPFFETWMQTCMPEEGKILNPDHPCFRPDSTKVESLVALLNNSSEMKLVQMKWHEACLSISAAILEILNAWENGVLAFESIQKITDNIKGKVCSLAVCAVAWLVAHVRMLGLDEREKSLQMIRQLAGPLFSENTLQFYNERVVIMNSILERMCADVLQQTATQIKFPSTGVDTMPYWNLLPPKRPIKEVLTDIFAKVLEKGWVDSRSIHIFDTLLHMGGVYWFCNNLIKELLKETRKEHTLRAVELLYSIFCLDMQQVTLVLLGHILPGLLTDSSKWHSLMDPPGTALAKLAVWCALSSYSSHKGQASTRQKKRHREDIEDYISLFPLDDVQPSKLMRLLSSNEDDANILSSPTDRSMSSSLSASQLHTVNMRDPLNRVLANLFLLISSILGSRTAGPHTQFVQWFMEECVDCLEQGGRGSVLQFMPFTTVSELVKVSAMSSPKVVLAITDLSLPLGRQVAAKAIAAL | – | – | – | – | – | – | – | – | – | – | – | – | – | –
